# Experimental data published in patent publication US10689327B2, “Prodrug amino acid derivative” (TAISHO PHARMACEUTICALS CO., LTD., priority 2016, dated 2020).
# Experiments:
# [1] = biological target: human metabotropic glutamate receptor mGluR3 (Homo sapiens (Human), UniProt Q14832); assay: [35S]GTPγS binding test, mGluR3; format: biochemical; conditions: inhibition of glutamate (1 μM)-stimulated [35S]GTPγS specific binding, CHO cell membranes
# Procedure: (§1) Test 1 [^35S]GTPγS binding test
# (§2) CHO cells stably expressing human metabotropic glutamate receptors mGluR2 and mGluR3 were cultured at 37° C. under 5% CO2 using a Dulbecco's modified Eagle medium [1% proline, 1 mM sodium pyruvate, 1 mM succinic acid, 1 mM disodium succinate, 100 units/mL penicillin, 100 μg/mL streptomycin, 400 (mGluR2) or 300 (mGluR3) μg/mL hygromycin B, 2 mM L-glutamine (added just before use)] containing 10% dialyzed fetal bovine serum. The cells in a confluent state were washed with PBS(−), then dissociated using a cell scraper, and centrifuged at 1000 rpm for 5 minutes at 4° C. to recover the cells. The obtained pellet was suspended in a 20 mM HEPES buffer (pH 7.4) (mGluR2) or 20 mM HEPES buffer containing 1 mM EDTA (pH 7.4) (mGluR3), and the suspension was homogenized in a Teflon® homogenizer and then centrifuged at 48,000×g for 20 minutes at 4° C. to obtain a pellet again. The obtained pellet was subjected to two additional cycles of washing and centrifugation and then homogenized with the buffer described above to obtain a crude membrane fraction. The crude membrane fraction was diluted with a buffer for a binding test (final concentration: 20 mM HEPES, 100 mM NaCl, 10 mM MgCl2, 10 μM GDP, […], 0.1% BSA) (mGluR2) or (final concentration: 20 mM HEPES, 1 mM EDTA, 100 mM NaCl, 10 mM MgCl2, 10 μM GDP, 10 μg/mL saponin, 0.1% BSA) (mGluR3). To the crude membrane fraction containing 10 μg of membrane proteins/assay, Compounds (II)-1 to (II)-15 were each added, and the mixture was incubated at 30° C. for 20 minutes. Then, glutamate (final concentration: 20 (mGluR2) or 1 (mGluR3) μM) and [^35S]GTPγS (final concentration: 0.15 nM) were added thereto, and the mixture was incubated at 30° C. for 1 hour. The solution thus incubated was filtered by suction onto Whatman GF/C filter, and the filter was washed with 1000 μL of an ice-cooled 20 mM HEPES buffer (pH 7.4) (mGluR2) or 20 mM HEPES buffer containing 1 mM EDTA (pH 7.4) (mGluR3). A scintillation cocktail was added to the obtained filter, and the membrane binding radioactivity was measured using a liquid scintillation counter. The residual radioactivity in the absence of glutamate was defined as nonspecific binding, and the difference from the residual radioactivity in the presence of glutamate was defined as specific binding. From the percent inhibition of specific binding at varying concentrations of Compounds (II)-1 to (II)-15, an inhibition curve was obtained using nonlinear analysis. The concentrations at which Compounds (II)-1 to (II)-15 inhibited 50% of specific binding (IC50) were calculated from the inhibition curve.
# [2] = biological target: human metabotropic glutamate receptor mGluR2 (Homo sapiens (Human), UniProt Q14416); assay: [35S]GTPγS binding test, mGluR2; format: biochemical; conditions: inhibition of glutamate (20 μM)-stimulated [35S]GTPγS specific binding, CHO cell membranes
# human metabotropic glutamate receptor mGluR2, sequence (Q14416 19-872): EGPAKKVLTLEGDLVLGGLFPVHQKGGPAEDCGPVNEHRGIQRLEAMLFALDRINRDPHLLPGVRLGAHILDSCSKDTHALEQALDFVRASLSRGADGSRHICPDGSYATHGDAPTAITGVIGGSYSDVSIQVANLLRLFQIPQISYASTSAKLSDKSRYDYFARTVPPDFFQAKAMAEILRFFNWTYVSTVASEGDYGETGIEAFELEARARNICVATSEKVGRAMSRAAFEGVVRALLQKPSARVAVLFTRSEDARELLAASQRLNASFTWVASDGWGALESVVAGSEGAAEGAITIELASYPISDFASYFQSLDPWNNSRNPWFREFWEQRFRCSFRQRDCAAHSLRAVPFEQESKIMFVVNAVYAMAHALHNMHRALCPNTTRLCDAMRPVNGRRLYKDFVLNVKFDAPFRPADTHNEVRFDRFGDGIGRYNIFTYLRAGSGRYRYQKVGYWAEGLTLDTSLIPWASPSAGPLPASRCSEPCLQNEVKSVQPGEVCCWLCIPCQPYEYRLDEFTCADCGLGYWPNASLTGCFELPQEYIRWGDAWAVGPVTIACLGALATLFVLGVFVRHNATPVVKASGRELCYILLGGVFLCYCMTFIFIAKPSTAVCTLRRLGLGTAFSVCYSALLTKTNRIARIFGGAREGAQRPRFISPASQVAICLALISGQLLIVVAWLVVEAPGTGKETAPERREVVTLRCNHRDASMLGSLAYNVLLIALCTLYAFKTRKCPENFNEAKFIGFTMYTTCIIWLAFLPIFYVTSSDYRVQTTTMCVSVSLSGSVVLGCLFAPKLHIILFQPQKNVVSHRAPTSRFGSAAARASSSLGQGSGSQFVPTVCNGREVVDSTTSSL
# Procedure: as §1, §2
# mGlu2 receptor = mGlu2 receptor (Homo sapiens (Human), UniProt Q14416); conditions: reported in literature; cited from earlier work
# mGlu2 receptor, sequence (Q14416 19-872): as above
# [3] = Stability test in solution (pH 1.2 and pH 6.5); format: physicochemical; conditions: 1 hour; for Compound's percent residue (%) pH 1.2: hydrochloric acid solution pH 1.2, 37° C.
# Procedure: Test 2: Stability Test in Solution
# A test to determine the stability of Inventive Compounds (I-A) or (I) in a hydrochloric acid solution (pH 1.2) and 20 mM phosphate buffer (pH 6.5) was conducted in accordance with the following method.
# A compound was dissolved in a hydrochloric acid solution (pH 1.2) containing hydrochloric acid and sodium chloride or a 20 mM phosphate buffer (pH 6.5) containing disodium hydrogenphosphate, sodium dihydrogenphosphate and sodium chloride to prepare a solution with a concentration of about 50 ng/mL (near the saturated concentration when the compound was not dissolved). The solution was incubated at 37° C. for 1 hour and the compound's concentration before and after the incubation was quantified by high-performance liquid chromatography to calculate the percent residue of the compound. Compounds having low solubility were assessed as being not applicable.
# The percent residues of representative compounds in the hydrochloric acid solution (pH 1.2) and the 20 mM phosphate buffer (pH 6.5) are shown in the following Table 2.
# rats = conditions: 1 mg/kg; cited from earlier work
# mice = conditions: cited from earlier work
# mGlu3 receptor = mGlu3 receptor (Homo sapiens (Human), UniProt Q14832); conditions: reported in literature; cited from earlier work
# mGlu3 receptor, sequence (Q14832 23-879): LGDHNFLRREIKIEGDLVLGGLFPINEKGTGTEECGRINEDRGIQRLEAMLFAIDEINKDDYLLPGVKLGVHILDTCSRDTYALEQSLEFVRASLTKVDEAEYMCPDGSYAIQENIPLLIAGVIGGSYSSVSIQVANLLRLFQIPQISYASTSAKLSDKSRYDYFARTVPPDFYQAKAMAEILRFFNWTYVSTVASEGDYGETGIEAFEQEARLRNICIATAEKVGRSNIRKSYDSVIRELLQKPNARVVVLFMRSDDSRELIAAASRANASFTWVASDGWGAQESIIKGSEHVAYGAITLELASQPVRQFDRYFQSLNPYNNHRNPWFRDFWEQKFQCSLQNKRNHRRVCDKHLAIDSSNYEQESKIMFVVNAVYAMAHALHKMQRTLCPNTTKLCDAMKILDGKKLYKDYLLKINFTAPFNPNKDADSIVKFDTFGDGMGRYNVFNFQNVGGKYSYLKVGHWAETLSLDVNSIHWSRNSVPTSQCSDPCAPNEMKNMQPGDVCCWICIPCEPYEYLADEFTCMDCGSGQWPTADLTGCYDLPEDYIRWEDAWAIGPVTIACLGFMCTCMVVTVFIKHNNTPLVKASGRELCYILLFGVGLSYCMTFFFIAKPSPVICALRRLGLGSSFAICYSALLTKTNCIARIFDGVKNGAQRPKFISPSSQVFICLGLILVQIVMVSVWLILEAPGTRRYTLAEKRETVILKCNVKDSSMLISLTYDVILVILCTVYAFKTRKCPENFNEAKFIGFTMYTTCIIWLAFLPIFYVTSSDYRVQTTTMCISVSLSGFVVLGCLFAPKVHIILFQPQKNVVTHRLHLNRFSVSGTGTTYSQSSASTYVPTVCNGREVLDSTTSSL
# human metabotropic glutamate receptor mGluR3, sequence (Q14832 23-879): as above
SMILES,IC50 [1] [nM],IC50 [2] [nM],other results
"N[C@]1(C(=O)O)[C@H]2[C@@H](C[C@H]1OCc1ccc(F)cc1)[C@]2(F)C(=O)O [Compound (II)-1, (1R,2R,3R,5R,6R)-2-amino-6-fluoro-3-[(4-fluorophenyl)methoxy]bicyclo[3.1.0]hexane-2,6-dicarboxylic acid]",36.4,36.1,antagonistic activity (mGlu2 receptor) (mGlu2 receptor): ≤ 500 nM
"N[C@]1(C(=O)O)[C@H]2[C@@H](C[C@H]1OCc1ccc(F)c(F)c1)[C@]2(F)C(=O)O [Compound (II)-2, (1R,2R,3R,5R,6R)-2-amino-3-[(3,4-difluorophenyl)methoxy]-6-fluorobicyclo[3.1.0]hexane-2,6-dicarboxylic acid]",14.8,18.8,antagonistic activity (mGlu2 receptor) (mGlu2 receptor): ≤ 500 nM
"CCCO[C@@H]1C[C@@H]2[C@H]([C@]1(N)C(=O)O)[C@@]2(F)C(=O)O [Compound (II)-3, (1R,2R,3R,5R,6R)-2-amino-6-fluoro-3-propoxybicyclo[3.1.0]hexane-2,6-dicarboxylic acid]",321,75.1,antagonistic activity (mGlu2 receptor) (mGlu2 receptor): ≤ 500 nM
"COc1cc([C@@H](C)O[C@@H]2C[C@@H]3[C@H]([C@]2(N)C(=O)O)[C@@]3(F)C(=O)O)ccc1F [Compound (II)-4, (1R,2R,3R,5R,6R)-2-amino-6-fluoro-3-[(1R)-1-(4-fluoro-3-methoxyphenyl)ethoxy]bicyclo[3.1.0]hexane-2,6-dicarboxylic acid]",5.04,5.22,
"N[C@]1(C(=O)O)[C@H]2[C@@H](C[C@H]1OCc1ccc(C(F)(F)F)cc1)[C@]2(F)C(=O)O [Compound (II)-5, (1R,2R,3R,5R,6R)-2-amino-6-fluoro-3-{[4-(triflouromethyl)phenyl]methoxy}bicyclo[3.1.0]hexane-2,6-dicarboxylic acid]",279,23.7,
"N[C@]1(C(=O)O)[C@H]2[C@@H](C[C@H]1OCc1cccc(F)c1)[C@]2(F)C(=O)O [Compound (II)-6, (1R,2R,3R,5R,6R)-2-amino-6-fluoro-3-[(3-fluorophenyl)methoxy]bicyclo[3.1.0]hexane-2.6-dicarboxylic acid]",75.5,27.8,
"CC(C)CCO[C@@H]1C[C@@H]2[C@H]([C@]1(N)C(=O)O)[C@@]2(F)C(=O)O [Compound (II)-7, (1R,2R,3R,5R,6R)-2-amino-6-fluoro-3-(3-methylbutoxy)bicyclo[3.1.0]hexane-2,6-dicarboxylic acid]",173,98.8,
"N[C@]1(C(=O)O)[C@H]2[C@@H](C[C@H]1OCc1cccc(Cl)n1)[C@]2(F)C(=O)O [Compound (II)-8, (1R,2R,3R,5R,6R)-2-amino-3-[(6-chloropyridin-2-yl)methoxy]-6-fluorobicyclo[3.0.1]hexane-2,6-dicarboxylic acid]",32.3,18.6,
"N[C@]1(C(=O)O)[C@H]2[C@@H](C[C@H]1OC1CCCC1)[C@]2(F)C(=O)O [Compound (II)-9, (1R,2R,3R,5R,6R)-2-amino-3-(cyclopentyloxy)-6-fluorobicyclo[3.1.0]hexane-2,6-dicarboxylic acid]",97.6,62.2,
"N[C@]1(C(=O)O)[C@H]2[C@@H](C[C@H]1OCc1ccc(Cl)nc1)[C@]2(F)C(=O)O [Compound (II)-10, (1R,2R,3R,5R,6R)-2-amino-3-[(6-chloropyridin-3-yl)methoxy]-6-fluorobicyclo[3.1.0]hexane-2,6-dicarboxylic acid]",50.6,49.7,
"N[C@]1(C(=O)O)[C@H]2[C@@H](C[C@H]1OCc1ccc(Cl)cn1)[C@]2(F)C(=O)O [Compound (II)-11, (1R,2R,3R,5R,6R)-2-amino-3-[(5-chloropyridin-2-yl)methoxy]-6-fluorobicyclo[3.1.0]hexane-2,6-dicarboxylic acid]",12.4,28.4,
"Cc1ccc(CO[C@@H]2C[C@@H]3[C@H]([C@]2(N)C(=O)O)[C@@]3(F)C(=O)O)cc1 [Compound (II)-12, (1R,2R,3R,5R,6R)-2-amino-6-fluoro-3-[(4-methylphenyl)methoxy]bicyclo[3.1.0]hexane-2.6-dicarboxylic acid]",54.4,24.6,
"N[C@]1(C(=O)O)[C@H]2[C@@H](C[C@H]1OCc1cc[nH]c(=O)c1)[C@]2(F)C(=O)O [Compound (II)-13, (1R,2R,3R,5R,6R)-2-amino-6-fluoro-3-[(2-oxo-1,2-dihycropyridin-4-yl)methoxy]bicyclo[3.1.0]hexane-2.6-dicarboxylic acid]",4.35,37.3,
"N[C@]1(C(=O)O)[C@H]2[C@@H](C[C@H]1OCc1ccc(F)c(F)c1)[C@@H]2C(=O)O [Compound (II)-14, (1S,2R,3R,5R,6S)-2-amino-3-[(3,4-difluorophenyl)methoxy]bicyclo[3.1.0]hexane-2,6-dicarboxylic acid]",15.2,30.1,
"N[C@]1(C(=O)O)[C@H]2[C@@H](C[C@H]1OCc1ccc(F)cc1)[C@@H]2C(=O)O [Compound (II)-15, (1S,2R,3R,5R,6S)-2-amino-3-[(4-fluorophenyl)methoxy]bicyclo[3.1.0]hexane-2,6-dicarboxylic acid]",60.5,32.7,
"C[C@@H](OC(=O)C12CC3CC(CC(C3)C1)C2)OC(=O)[C@@]1(N)[C@H]2[C@@H](C[C@H]1OCc1ccc(F)cc1)[C@@H]2C(=O)O [Example 38, (1S,2R,3R,5R,6S)-2-amino-3-[(4-fluorophenyl)methoxy]-2-({(1S)-1-[(tricyclo[3.3.1.1^3,7]decane-1-carbonyl)oxy]ethoxy}carbonyl)bicyclo[3.1.0]hexane-6-carboxylic acid]",,,"Compound's percent residue (%) pH 6.5 ([3]; 20 mM phosphate buffer pH 6.5, 37° C.): 94%; Compound's percent residue (%) pH 1.2 [3]: 97%"
"CC(C)[C@@H]1CC[C@@H](C)C[C@H]1OC(=O)O[C@H](C)OC(=O)[C@@]1(N)[C@H]2[C@@H](C[C@H]1OCc1ccc(F)cc1)[C@@H]2C(=O)O [Example 39, (1S,2R,3R,5R,6S)-2-amino-3-[(4-fluorophenyl)methoxy]-2-({(1R)-1-[({[(1R,2S,5R)-5-methyl-2-(propan-2-yl)cyclohexyl]oxy}carbonyl)oxy]ethoxy}carbonyl)bicyclo[3.1.0]hexane-6-carboxylic acid]",,,Compound's percent residue (%) pH 1.2 [3]: 97%
N[C@]1(C(=O)O)[C@H]2[C@@H](C[C@H]1OCc1ccc(Cl)c(Cl)c1)[C@]2(F)C(=O)O [MGS0039],,,immobility time in the forced swimming test (rats): sufficient to suppress immobility time; immobility time in the tail suspension test (mice): shortens immobility time; antagonistic activity (mGlu2 receptor) (mGlu2 receptor): 20 nM; antagonistic activity (mGlu3 receptor) (mGlu3 receptor): 24 nM
